Experimental data published in patent publication US20090068290A1, “BIFEPRUNOX DOSES FOR TREATING SCHIZOPHRENIA” (priority 2006, published 2009).

Assays:
Assay type in all cases: in vivo, human
[1] = system: adult subjects with schizophrenia; assay: BPRS psychosis cluster score, Clinical Study Three; conditions: LOCF; for Change from Baseline in BPRS Psychosis Cluster Score, Mean (SD) / Change from Baseline in BPRS Psychosis Cluster Score, Median: Olanzapine 15 mg, ITT population
Description: SECONDARY OBJECTIVES To assess the efficacy of bifeprunox in treating schizophrenia using the Positive Symptom sub-scale score of the PANSS, the Negative Symptom sub-scale score of the PANSS, the General Psychopathology sub-scale of the PANSS, Brief Psychiatric Rating Scale (BPRS) total score derived from the PANSS, BPRS psychosis score derived from the PANSS, the Clinical Global Impression Severity of Illness score (CGI-S), the Clinical Global Impression Improvement score (CGI-I), CGI-I responder rate, PANSS responder rate based on the PANSS total score, Calgary Depression Scale for Schizophrenia (CDSS), and Subject Satisfaction rating.
There were four treatment arms in this study, approximately 144 subjects per arm. […] After completing the Single-Blind Placebo Lead-in Period of at least three days, bifeprunox-treated subjects were titrated from 0.25 mg up to 20 mg/day or 30 mg/day according to a standardized titration scheme over a seven- or eight-day period, respectively. When the assigned dose was reached, subjects were maintained at that dose for the remainder of the six week treatment period. […] Subjects were hospitalized (if not already inpatients) after eligibility for study entry was verified, starting from the Screening Visit until at least 10 days after Baseline. Subjects could be hospitalized longer than 10 days if considered medically necessary by the Investigator. Rating scale assessments for efficacy and abnormal movement disorders were done weekly except for Week 5. […] Subject satisfaction with study medication was assessed at Week 6.

[2] = Body weight, Clinical Study One; conditions: Risperidone 6 mg
Description: Statistical testing of the change from Baseline in weight was performed using similar methodology to that used for the secondary efficacy parameters (an ANCOVA model with factors for treatment and weight at Baseline). Pairwise comparisons of the bifeprunox treatment groups versus placebo were all statistically significant (bifeprunox 5 mg [p=0.025], bifeprunox 10 mg [p=0.009] and bifeprunox 20 mg [p=0.031] for the difference between bifeprunox and placebo mean change from Baseline in weight at Endpoint.

[3] = system: adult subjects with schizophrenia; assay: PANSS general psychopathology subscale score, Clinical Study Two; conditions: LOCF; for Change from Baseline in General Psychopathology Subscale Score, Mean (SD) / Change from Baseline in General Psychopathology Subscale Score, Median: Risperidone 6 mg, ITT population
Description: (§1) Rating scale assessments were performed weekly, except for week 5, to measure the change from baseline to endpoint of the PANSS total score. Other assessments included: PANSS positive symptom subscale score, PANSS negative symptom subscale score, PANSS general pschopathology subscale score, BPRS total score, BPRS psychosis score, the CGI-S score, the CGI-I score, responder rates based on the PANSS total score, and the Calgary Depression Scale for Schizophrenia (CDSS). […]
(§2) Subjects who completed this study had the option to continue in the long-term. […] Risperidone-treated subjects were titrated from 2 mg to 6 mg daily over a three-day period and were subsequently maintained at 6 mg/day for the remainder of the treatment period. […] Blood samples were also obtained at Screening/Baseline, Week 3, and Week 6 for clinical laboratory assessments.

[4] = system: adult subjects with schizophrenia; assay: CGI Improvement score, Clinical Study Two; conditions: 6 mg, LOCF
Description: as §1, §2

[5] = system: adult subjects with schizophrenia; assay: Calgary Depression Scale for Schizophrenia (CDSS), Clinical Study Two; conditions: LOCF; for Change from Baseline in CDSS Total Score, Mean (SD) / Change from Baseline in CDSS Total Score, Median: 6 mg
Description: as §1, §2

Cc1cc2c(s1)Nc1ccccc1N=C2N1CCN(C)CC1 [Olanzapine, olanzapine, reference compound]
Change from Baseline in BPRS Psychosis Cluster Score, Mean (SD) ([1]; Week 1): −1.9 (2.3)
Change from Baseline in BPRS Psychosis Cluster Score, Median ([1]; Week 1): −2
Change from Baseline in BPRS Psychosis Cluster Score, Mean (SD) ([1]; Week 2): −3.1 (2.6)
Change from Baseline in BPRS Psychosis Cluster Score, Median ([1]; Week 2): −3
Change from Baseline in BPRS Psychosis Cluster Score, Mean (SD) ([1]; Week 3): −4.0 (3.2)
Change from Baseline in BPRS Psychosis Cluster Score, Median ([1]; Week 3): −4
Change from Baseline in BPRS Psychosis Cluster Score, Mean (SD) ([1]; Week 4): −4.4 (3.5)
Change from Baseline in BPRS Psychosis Cluster Score, Median ([1]; Week 4): −5
Change from Baseline in BPRS Psychosis Cluster Score, Mean (SD) ([1]; Week 6/Endpoint): −4.9 (4.0)
Change from Baseline in BPRS Psychosis Cluster Score, Median ([1]; Week 6/Endpoint): −5
mean change (SD) from Baseline to Endpoint in BPRS psychosis cluster score ([1]; olanzapine 15 mg, ITT): −4.9 (4.0)

Cc1nc2n(c(=O)c1CCN1CCC(c3noc4cc(F)ccc34)CC1)CCCC2 [Risperidone, risperidone, reference compound]
mean weight change (increase) [2]: 4.8 lb
subjects who decreased their weight by ≧7% [2]: No subjects
subjects who increased their weight by ≧7% [2]: 13%
Change from Baseline in General Psychopathology Subscale Score, Mean (SD) ([3]; Week 1): −3.9 (5.6)
Change from Baseline in General Psychopathology Subscale Score, Median ([3]; Week 1): −4
Change from Baseline in General Psychopathology Subscale Score, Mean (SD) ([3]; Week 2): −6.7 (7.3)
Change from Baseline in General Psychopathology Subscale Score, Median ([3]; Week 2): −6
Change from Baseline in General Psychopathology Subscale Score, Mean (SD) ([3]; Week 3): −7.6 (7.7)
Change from Baseline in General Psychopathology Subscale Score, Median ([3]; Week 3): −8
Change from Baseline in General Psychopathology Subscale Score, Mean (SD) ([3]; Week 4): −8.4 (8.5)
Change from Baseline in General Psychopathology Subscale Score, Median ([3]; Week 4): −9
Change from Baseline in General Psychopathology Subscale Score, Mean (SD) ([3]; Week 6/Endpoint): −8.6 (9.8)
Change from Baseline in General Psychopathology Subscale Score, Median ([3]; Week 6/Endpoint): −9
mean change (SD) from Baseline to Endpoint in PANSS general psychopathology subscale score ([3]; risperidone 6 mg, ITT): −8.6 (9.8)
CGI Improvement Minimally Improved, % ([4]; Week 2): (40%)
CGI Improvement Minimally Worse, % ([4]; Week 2): (5%)
CGI Improvement Much Improved, % ([4]; Week 2): (30%)
CGI Improvement Much Worse, % ([4]; Week 2): (3%)
CGI Improvement No Change, % ([4]; Week 2): (16%)
CGI Improvement Very Much Improved, % ([4]; Week 2): (5%)
CGI Improvement Minimally Improved, % ([4]; Week 3): (33%)
CGI Improvement Minimally Worse, % ([4]; Week 3): (5%)
CGI Improvement Much Improved, % ([4]; Week 3): (36%)
CGI Improvement Much Worse, % ([4]; Week 3): (5%)
CGI Improvement No Change, % ([4]; Week 3): (13%)
CGI Improvement Very Much Improved, % ([4]; Week 3): (9%)
CGI Improvement Minimally Improved, % ([4]; Week 4): (25%)
CGI Improvement Minimally Worse, % ([4]; Week 4): (5%)
CGI Improvement Much Improved, % ([4]; Week 4): (38%)
CGI Improvement Much Worse, % ([4]; Week 4): (5%)
CGI Improvement No Change, % ([4]; Week 4): (14%)
CGI Improvement Very Much Improved, % ([4]; Week 4): (13%)
CGI Improvement Minimally Improved, % ([4]; Week 6/Endpoint): (23%)
CGI Improvement Minimally Worse, % ([4]; Week 6/Endpoint): (5%)
CGI Improvement Much Improved, % ([4]; Week 6/Endpoint): (36%)
CGI Improvement Much Worse, % ([4]; Week 6/Endpoint): (5%)
CGI Improvement No Change, % ([4]; Week 6/Endpoint): (15%)
CGI Improvement Very Much Improved, % ([4]; Week 6/Endpoint): (16%)
CGI Improvement Very Much Worse, % ([4]; Week 6/Endpoint): (<1%)
Change from Baseline in CDSS Total Score, Mean (SD) ([5]; Week 1): −0.62 (2.42)
Change from Baseline in CDSS Total Score, Median ([5]; Week 1): 0.0
Change from Baseline in CDSS Total Score, Mean (SD) ([5]; Week 2): −0.74 (2.71)
Change from Baseline in CDSS Total Score, Median ([5]; Week 2): 0.0
Change from Baseline in CDSS Total Score, Mean (SD) ([5]; Week 3): −0.93 (3.41)
Change from Baseline in CDSS Total Score, Median ([5]; Week 3): 0.0
Change from Baseline in CDSS Total Score, Mean (SD) ([5]; Week 4): −0.95 (3.08)
Change from Baseline in CDSS Total Score, Median ([5]; Week 4): 0.0
Change from Baseline in CDSS Total Score, Mean (SD) ([5]; Week 6/Endpoint): −0.89 (3.42)
Change from Baseline in CDSS Total Score, Median ([5]; Week 6/Endpoint): 0.0
mean change (SD) from Baseline to Endpoint in CDSS score ([5]; risperidone 6 mg, ITT): −0.89 (3.42)
